This is an account of results in patent US9598362B2, “Benzidine derivative, method for preparing same, and pharmaceutical composition containing benzidine derivative for treating liver disease caused by hepatitis C virus” (priority 2013, dated 2017).

For orientation: EC50 means the concentration needed to bring the measured effect to its halfway point.

One experiment relates to HCV (JFH-5aFlucm4). Put plainly: Evaluation of anti-HCV activity 1: huh7.5.1 cells inoculated with HCV carrying renilla luciferase reporter. The format is cell-based. The conditions noted are these: Hepatitis C virus. The method, then: To evaluate the anti-HCV activity of the compound represented by formula 1 of the present invention, the following experiment was performed.
The hepatoma cell line huh7.5.1 was distributed in a 12-well cell culture plate at the density of 50,000 cells/well. The cells were cultured in DMEM (Dulbecco's Modified Eagle's Medium 12800-017, GIBCO Co.) supplemented with 10% (v/v) FBS (Fetal Bovine Serum SH30406.02, Hyclone Co.) and 1% (v/v) antibiotics (penicillin/streptomycin solution SV30010, Hyclone Co.) in a 37° C. 6.0% CO2 incubator (CO2 Incubator 311, Forma Scientific Co, Lnc. USA) for 24 hours to lead cell attachment on the plate. Then, the cells were inoculated with HCV (JFH-5aFlucm4, PLoS One. 2011; 6(8):e228808.) having renilla luciferase gene as a reporter for 3 hours. Upon completion of the virus inoculation, the cell culture medium was replaced with the medium containing the compounds prepared in Examples 1˜24 at the concentration of 1 μM each. The cells were cultured in a 37° C. 6.0% CO2 incubator (CO2 Incubator 311, Forma Scientific Co, Lnc. USA) for 3 days. Three days after the infection, the cell culture medium was collected to measure the cytotoxicity in the following Experimental Example 3. The cells attached on the plate were washed with PBS (phosphate buffered saline) and then lysed by treating 100 μl of 1× passive lysis buffer (Promega, E1941). The cell lysate (10 μl) was added to renilla luciferase assay reagent (50 μl) in renilla luciferase assay system (Promega, E2820), followed by measurement of luminescence for 10 seconds using the luciferase measure program with Luminometer (GLOMAX 20/20 Luminometer, Promega). At this time, the measurement of luminescence was performed in triplicate with the groups treated with the compounds of Examples 1˜24 and the non-treated control group. The mean value was calculated and compared. The luminescence of each compound over the concentration was converted into EC50 (half maximal effective concentration) by using sigma plot program, and the results are shown in Table 2.
(In general: Reporter assays use an easily measured gene product as a stand-in for the process of interest.)

Another experiment relates to HCV replicon NK/R2AN. Description: Evaluation of anti-HCV activity 2: inhibition of HCV replication, huh7.5.1 cells with replicon NK/R2AN, renilla luciferase. The experiment is classed as cell-based. Particulars: for EC50: Hepatitis C virus; for EC50 (in words): duplicated HCV treated with compound. The method, then:
To evaluate the anti-HCV activity, that is the activity to inhibit HCV replication, of the compound represented by formula 1 of the present invention, the following experiment was performed.
The hepatoma cell line huh7.5.1 having NK/R2AN, the replicon with which the replication and translation of HCV could be measured, was distributed in a 12-well cell culture plate at the density of 50,000 cells/well. The cells were cultured in DMEM (Dulbecco's Modified Eagle's Medium 12800-017, GIBCO Co.) supplemented with 10% (v/v) FBS (Fetal Bovine Serum SH30406.02, Hyclone Co.), 1% (v/v) antibiotics (penicillin/streptomycin solution SV30010, Hyclone Co.), and G418 (600 μg/mL, Calbiochem) in a 37° C. 6.0% CO2 incubator (CO2 Incubator 311, Forma Scientific Co, Lnc. USA) for 24 hours to lead cell attachment on the plate. Then, the cells were inoculated with HCV having renilla luciferase gene as a reporter for 3 hours. Upon completion of the virus inoculation, the cell culture medium was replaced with the medium containing the compounds prepared in Examples 1˜24 were added to the culture medium at the concentrations of 40 pM˜1 μM each. The cells were cultured in a 37° C. 6.0% CO2 incubator (CO2 Incubator 311, Forma Scientific Co, Lnc. USA) for 3 days. Three days after the infection, the cell culture medium was collected to measure the cytotoxicity in the following Experimental Example 3. The cells attached on the plate were washed with PBS (phosphate buffered saline) and then lysed by treating 100 μl of 1× passive lysis buffer (Promega, E1941). The cell lysate (10 μl) was added to renilla luciferase assay reagent (50 μl) in renilla luciferase assay system (Promega, E2820), followed by measurement of luminescence for 10 seconds using the luciferase measure program with Luminometer (GLOMAX 20/20 Luminometer, Promega). At this time, the measurement of luminescence was performed in triplicate with the groups treated with the compounds of Examples 1˜24 and the non-treated control group. The mean value was calculated and compared. The luminescence of each compound over the concentration was converted into EC50 (half maximal effective concentration) by using sigma plot program, and the results are shown in Table 3. At this time, when EC50 was under 100 pM, it was marked as A; when EC50 was in the range of 100 pM 1 nM, it was marked as B; when EC50 was in the range of 1 nM˜100 nM, it was marked as C; and when EC50 was over 100 nM, it was marked as D. The results are shown in Table 3.
(In general: In antiviral work, replicon cells carry a viral genome segment that copies itself.)

Where [1] appears, read: Huh-7.5.1, 72 h, read-out: EC50 grade.
The mark [2] stands for this setting: Huh-7.5.1, replicon huh7.5.1 cells, Table 3, read-out: EC50.

Read-outs that look alike come from different tables or passages of the source.

For `CN(C)[C@@H](C(=O)N1CCC[C@H]1C(=O)Nc1ccc(-c2ccc(NC(=O)[C@@H]3CCCN3C(=O)[C@@H](c3ccccc3)N(C)C)cc2)cc1)c1ccccc1` [Example 14, (S,2S,2′S)—N,N′-(biphenyl-4,4′-diyl)bis(1-((S)-2-(dimethylamino)-2-phenylacetyl)pyrrolidine-2-carboxamide)], the results for the EC50 with HCV (JFH-5aFlucm4) (setting [1]) and with HCV replicon NK/R2AN (setting [1]) were 1 to 100 nM and 0.1 to 1 nM, respectively.

Regarding `COC(=O)N[C@@H](C)C(=O)N1CCC[C@H]1C(=O)Nc1ccc(-c2ccc(NC(=O)[C@@H]3CCCN3C(=O)[C@H](C)NC(=O)OC)cc2)cc1` [Example 18, dimethyl(2S,2′S)-1,1′-((2S,2′R)-2,2′-(biphenyl-4,4′-diylbis(azandiyl))bis(oxomethylene)bis(pyrrolidine-2,1-diyl))bis(1-oxopropane-2,1-diyl)dicarbamate], the EC50 in the experiment with HCV (JFH-5aFlucm4) (setting [1]) was more than 100 nM.

In the case of `COC(=O)N[C@@H](C(=O)N1CC(=O)C[C@H]1C(=O)Nc1ccc(-c2ccc(NC(=O)[C@@H]3CC(=O)CN3C(=O)[C@H](NC(=O)OC)c3ccccc3)cc2)cc1)c1ccccc1` [Example 9, dimethyl((1R,1′R)-((5S,5′S)-5,5′-(([1,1′-biphenyl]-4,4′-diylbis(azandiyl))bis(carbonyl))bis(3-oxopyrrolidine-5,1-diyl))bis(2-oxo-1-phenylethane-2,1-diyl))dicarbamate], the EC50 with HCV (JFH-5aFlucm4) (Huh-7.5.1) was less than 1 nM; in the experiment on HCV (JFH-5aFlucm4) (setting [1]) it was less than 1 nM; in the experiment on HCV replicon NK/R2AN (Huh-7.5.1), less than 0.1 nM; in the experiment on HCV replicon NK/R2AN (setting [1]), less than 0.1 nM. Further, in the experiment with HCV replicon NK/R2AN, the “EC50 (in words)” value was “significantly low”.

In the case of `COC(=O)N[C@@H](C(=O)N1CCC[C@H]1C(=O)Nc1ccc2c(c1)C(C)(C)c1cc(NC(=O)[C@@H]3CCCN3C(=O)[C@H](NC(=O)OC)c3ccccc3)ccc1-2)c1ccccc1` [Example 23, dimethyl((1R,1′R)-((2S,2′S)-2,2′-(((9,9-dimethyl-9H-fluorene-2,7-diyl)bis(azandiyl))bis(carbonyl))bis(pyrrolidine-2,1-diyl))bis(2-oxo-1-phenylethane-2,1-diyl))dicarbamate], the EC50 in the experiment on HCV (JFH-5aFlucm4) (Huh-7.5.1) is less than 1 nM; with HCV (JFH-5aFlucm4) (setting [1]), less than 1 nM; in the experiment with HCV replicon NK/R2AN (setting [1]) it was less than 0.1 nM; with HCV replicon NK/R2AN (setting [2]) it was less than 0.1 nM. Besides, the “EC50 (in words)” value in the experiment with HCV replicon NK/R2AN is on record as “significantly low”.

For the molecule `COC(=O)N[C@@H](C(=O)N1CCC[C@H]1C(=O)Nc1ccc(-c2ccc(NC(=O)[C@@H]3CCCN3C(=O)[C@H](NC(=O)OC)c3ccccc3)c(C)c2)cc1C)c1ccccc1` [Example 1, dimethyl((1R,1′R)-((2S,2′S)-2,2′-(((3,3′-dimethyl-[1,1′-biphenyl]-4,4′-diyl)bis(azandiyl))bis(carbonyl))bis(pyrrolidine-2,1-diyl))bis(2-oxo-1-phenylethane-2,1-diyl))dicarbamate], the EC50 is more than 100 nM with HCV (JFH-5aFlucm4) (setting [1]) and 1 to 100 nM in the experiment on HCV replicon NK/R2AN (setting [1]).

Turning to `COC(=O)N[C@@H](C(=O)N1CCC[C@H]1C(=O)Nc1ccc2c(c1)C(=O)c1cc(NC(=O)[C@@H]3CCCN3C(=O)[C@H](NC(=O)OC)c3ccccc3)ccc1-2)c1ccccc1` [Example 24, dimethyl((1R,1′R)-((2S,2′S)-2,2′-(((9-oxo-9H-fluorene-2,7-diyl)bis(azandiyl))bis(carbonyl))bis(pyrrolidine-2,1-diyl))bis(2-oxo-1-phenylethane-2,1-diyl))dicarbamate], the figures for the half-maximal effective concentration (EC50) with HCV (JFH-5aFlucm4) (setting [1]), in the experiment with HCV replicon NK/R2AN (setting [1]) and with HCV replicon NK/R2AN (setting [2]) were 1 to 100 nM, less than 0.1 nM and less than 0.1 nM, respectively. In the experiment on HCV replicon NK/R2AN, the “EC50 (in words)” value is reported as “significantly low”.

For `COC(=O)N[C@@H](C(=O)N1CCC[C@H]1C(=O)Nc1ccc(-c2ccc(NC(=O)[C@@H]3CCCN3C(=O)[C@H](NC(=O)OC)C(C)C)cc2)cc1)C(C)C` [Example 13, dimethyl(2R,2′R)-1,1′-((2S,2′S)-2,2′-(biphenyl-4,4′-diylbis(azandiyl))bis(oxomethylene)bis(pyrrolidine-2,1-diyl))bis(3-methyl-1-oxobutane-2,1-diyl)dicarbamate], in the experiment on HCV (JFH-5aFlucm4) (setting [1]), the EC50 was more than 100 nM.

For the molecule `O=C(Nc1ccc(-c2ccc(NC(=O)[C@@H]3CCCN3C(=O)[C@H]3CCCO3)cc2)cc1)[C@@H]1CCCN1C(=O)[C@H]1CCCO1` [Example 17], in the experiment with HCV (JFH-5aFlucm4) (setting [1]), the EC50 is more than 100 nM.

Turning to `COC(=O)N[C@@H](C(=O)N1CCCC[C@H]1C(=O)Nc1ccc(-c2ccc(NC(=O)[C@@H]3CCCCN3C(=O)[C@H](NC(=O)OC)c3ccccc3)cc2)cc1)c1ccccc1` [Example 10, dimethyl((1R,1′R)-((2S,2′S)-2,2′-(([1,1′-biphenyl]-4,4′-diylbis(azandiyl))bis(carbonyl))bis(piperidine-2,1-diyl))bis(2-oxo-1-phenylethane-2,1-diyl))dicarbamate], the EC50 is more than 100 nM in the experiment on HCV (JFH-5aFlucm4) (setting [1]) and 1 to 100 nM in the experiment on HCV replicon NK/R2AN (setting [1]).

Consider `COC(=O)N[C@@H](C(=O)N1CCC[C@@H]1C(=O)Nc1ccc(-c2ccc(NC(=O)[C@H]3CCCN3C(=O)[C@H](NC(=O)OC)c3ccccc3)cc2)cc1)c1ccccc1` [Example 8, dimethyl((1R,1′R)-((2R,2′R)-2,2′-(([1,1′-biphenyl]-4,4′-diylbis(azandiyl))bis(carbonyl))bis(pyrrolidine-2,1-diyl))bis(2-oxo-1-phenylethane-2,1-diyl))dicarbamate], for which the figures for the EC50 with HCV (JFH-5aFlucm4) (setting [1]) and with HCV replicon NK/R2AN (setting [1]) were more than 100 nM and 1 to 100 nM, respectively.

Consider `COC(=O)N[C@@H](C(=O)N1CCC[C@H]1C(=O)Nc1ccc(-c2ccc(NC(=O)[C@@H]3CCCN3C(=O)[C@H](NC(=O)OC)c3ccccc3)cc2Cl)c(Cl)c1)c1ccccc1` [Example 6, dimethyl((1R,1′R)-((2S,2′S)-2,2′-(((2,2′-dichloro-[1,1′-biphenyl]-4,4′-diyl)bis(azandiyl))bis(carbonyl))bis(pyrrolidine-2,1-diyl))bis(2-oxo-1-phenylethane-2,1-diyl))dicarbamate], for which the EC50 in the experiment with HCV (JFH-5aFlucm4) (Huh-7.5.1) was less than 1 nM; in the experiment on HCV (JFH-5aFlucm4) (setting [1]), less than 1 nM; in the experiment with HCV replicon NK/R2AN (setting [1]) it was less than 0.1 nM; in the experiment on HCV replicon NK/R2AN (setting [2]) it was less than 0.1 nM. In addition, the “EC50 (in words)” value in the experiment on HCV replicon NK/R2AN was “significantly low”.

As to `COC(=O)N[C@H](C(=O)N1CCC[C@H]1C(=O)Nc1ccc(-c2ccc(NC(=O)[C@@H]3CCCN3C(=O)[C@@H](NC(=O)OC)C(C)(C)C)cc2)cc1)C(C)(C)C` [Example 19, dimethyl(2S,2′S)-1,1′-((2S,2′R)-2,2′-(biphenyl-4,4′-diylbis(azandiyl))bis(oxomethylene)bis(pyrrolidine-2,1-diyl))bis(3,3-dimethyl-1-oxobutane-2,1-diyl)dicarbamate], the EC50 with HCV (JFH-5aFlucm4) (setting [1]) fell in the range of 1 to 100 nM.

Turning to `COC(=O)N[C@H](C(=O)N1CCC[C@H]1C(=O)Nc1ccc(-c2ccc(NC(=O)[C@@H]3CCCN3C(=O)[C@@H](NC(=O)OC)C(C)C)cc2)cc1)C(C)C` [Example 20, dimethyl(2S,2′S)-1,1′-((2S,2′R)-2,2′-(biphenyl-4,4′-diylbis(azandiyl))bis(oxomethylene)bis(pyrrolidine-2,1-diyl))bis(3-methyl-1-oxobutane-2,1-diyl)dicarbamate], the EC50 in the experiment with HCV (JFH-5aFlucm4) (setting [1]) is more than 100 nM.
